Columns and labels:
PK in rat = assay: PK in rat; design: species or system SD rat; conditions: Sprague-Dawley, in vivo; for half-life / bioavailability: rat
Description: Representative PK Date of Pro-Drug Compounds

[1] = Hepatocyte stability, mouse; format: in vitro ADME; conditions: mouse, hepatocytes, read-out: Mouse T1/2
Description: (§1) Representative Metabolic Stability Data II, +, Extrapolated.

PK in monkey = conditions: in vivo
[2] = Liver microsome stability, dog; format: in vitro ADME; conditions: dog, liver microsomes
Description: (§2) Representative Metabolic Stability Data I; +, Extrapolated.

[3] = Hepatocyte stability, human; format: in vitro ADME; conditions: human, hepatocytes, read-out: Human T1/2
Description: as §1

[4] = Hepatocyte stability, dog; format: in vitro ADME; conditions: dog, hepatocytes, read-out: Dog T1/2
Description: as §1

[5] = Liver microsome stability, human; format: in vitro ADME; conditions: liver microsomes, liver microsome stability, read-out: Human T1/2
Description: as §2

[6] = Liver microsome stability, mouse; format: in vitro ADME; conditions: liver microsomes
Description: as §2

PK in mouse = conditions: in vivo
[7] = Liver microsome stability, rat; format: in vitro ADME; conditions: liver microsomes
Description: as §2

HT-29 = assay: EC50 in HT-29; format: cell-based; conditions: Homo sapiens
[8] = Hepatocyte stability, rat; format: in vitro ADME; conditions: rat, hepatocytes, read-out: Rat T1/2
Description: as §1

[9] = Liver microsome stability, monkey; format: in vitro ADME; conditions: monkey, liver microsomes
Description: as §2

[10] = Hepatocyte stability, mini-pig; format: in vitro ADME; conditions: minipig, hepatocytes, read-out: mini-pig T1/2
Description: as §1

PK in dog = conditions: in vivo
[11] = Hepatocyte stability, monkey; format: in vitro ADME; conditions: monkey, hepatocytes, read-out: Monkey T1/2
Description: as §1

[12] = Liver microsome stability, mini-pig; format: in vitro ADME; conditions: minipig, liver microsomes, read-out: mini-pig T1/2
Description: as §2

[13] = po, 10 mg/kg, SD rat, PO 10 mg/kg
[14] = Hepatocyte Stability, comparison table

Q: Which results are given for `CCC(C)(C)C(=O)N(O)Cc1ccccc1` [Compound 92, reference compound]?
A: AUC(0-inf) (PK in rat; Rat, IV 2 mg/kg): 520 ng·h/mL; clearance (PK in rat; Rat, IV 2 mg/kg): 64 mL/min/kg; Vd (PK in rat; Rat, IV 2 mg/kg, read-out: Vdss): 1.2 L/kg; AUC(0-inf) (PK in rat; Rat, PO 10 mg/kg): 214 ng·h/mL; Cmax (PK in rat; Rat, PO 10 mg/kg): 148 ng/mL; AUC (PK in rat; SD rat, PO 10 mg/kg): 29.9 ng·h/mL; half-life (PK in rat; iv, 2 mg/kg, IV 2 mg/kg): 18 min; bioavailability (PK in rat; po, 10 mg/kg, PO 10 mg/kg): 1.2%; half-life (PK in rat; po, 10 mg/kg, PO 10 mg/kg): 48 min; bioavailability (PK in rat; [13]): 1.15%; half-life (PK in rat; [13]): 38.4 min; half-life [1, 14]: 24 min; half-life ([1]; Hepatocyte stability): 24.4 min; AUC(0-inf) (PK in monkey; IV 2 mg/kg): 1940 ng·h/mL; clearance (PK in monkey; IV 2 mg/kg): 17.6 mL/min/kg; half-life (PK in monkey; IV 2 mg/kg): 46.2 min; Vd (PK in monkey; IV 2 mg/kg, read-out: Vdss): 0.86 L/kg; AUC(0-inf) (PK in monkey; PO 10 mg/kg): 374 ng·h/mL; Cmax (PK in monkey; PO 10 mg/kg): 185 ng/mL; bioavailability (PK in monkey; PO 10 mg/kg): 2.6%; half-life (PK in monkey; PO 10 mg/kg): 43.8 min; half-life ([2]; comparison table with WO2016/101885 compounds, read-out: Dog Liver Microsome T1/2): 7 min; half-life ([2]; liver microsome stability, read-out: Dog T1/2): 7.1 min; half-life [3, 14]: 73 min; half-life ([3]; Hepatocyte stability): 73.1 min; half-life [4, 14]: 14 min; half-life ([4]; Hepatocyte stability): 13.9 min; half-life [5]: 204 min; half-life ([6]; comparison table with WO2016/101885 compounds, read-out: Mouse Liver Microsome T1/2): 32 min; half-life ([6]; liver microsome stability, read-out: Mouse T1/2): 32.5 min; AUC(0-inf) (PK in mouse; IV 2 mg/kg): 323 ng·h/mL; clearance (PK in mouse; IV 2 mg/kg): 103 mL/min/kg; half-life (PK in mouse; IV 2 mg/kg): 186 min; Vd (PK in mouse; IV 2 mg/kg, read-out: Vdss): 3.08 L/kg; AUC(0-inf) (PK in mouse; PO 10 mg/kg): 349 ng·h/mL; Cmax (PK in mouse; PO 10 mg/kg): 249 ng/mL; bioavailability (PK in mouse; PO 10 mg/kg): 21.6%; half-life (PK in mouse; PO 10 mg/kg): 96 min; half-life ([7]; comparison table with WO2016/101885 compounds, read-out: Rat Liver Microsome T1/2): 25 min; half-life ([7]; liver microsome stability, read-out: Rat T1/2): 25.1 min; EC50 (HT-29): 25 nM; half-life [8, 14]: 14 min; half-life ([8]; Hepatocyte stability): 14.2 min; half-life ([9]; comparison table with WO2016/101885 compounds, read-out: Monkey Liver Microsome T1/2): 3 min; half-life ([9]; liver microsome stability, read-out: Monkey T1/2): 2.95 min; half-life [10]: 23.1 min; AUC(0-inf) (PK in dog; IV 3 mg/kg): 1960 ng·h/mL; clearance (PK in dog; IV 3 mg/kg): 25.6 mL/min/kg; half-life (PK in dog; IV 3 mg/kg): 72 min; Vd (PK in dog; IV 3 mg/kg, read-out: Vdss): 1.24 L/kg; AUC(0-inf) (PK in dog; PO 10 mg/kg): 136 ng·h/mL; Cmax (PK in dog; PO 10 mg/kg): 171 ng/mL; bioavailability (PK in dog; PO 10 mg/kg): 1.95%; half-life (PK in dog; PO 10 mg/kg): 81 min; half-life [11, 14]: 19 min; half-life ([11]; Hepatocyte stability): 18.9 min; half-life [12]: 53.5 min

From patent US12129221B2, “Difluoro phenyl amide RIP1 inhibitor” (SIRONAX LTD, priority 2018, dated 2024)
